Measurements published in PMC5218480 (PLoS ONE, 2017).

System: MV-4-11 cells
Assay: Gene expression microarray analysis (Affymetrix PrimeView) and GSEA
Format: cell-based, human
Set-up: RFU PODN (11730768_x_at) / Fold change /veh PODN (11730768_x_at) / RFU LINC00158 (11744669_a_at) / Fold change /veh LINC00158 (11744669_a_at) / RFU DUSP10 (11751237_a_at) / Fold change /veh DUSP10 (11751237_a_at) / RFU ID3 (11757404_x_at) / Fold change /veh ID3 (11757404_x_at) / RFU PLEKHG5 (11737974_s_at) / Fold change /veh PLEKHG5 (11737974_s_at) / RFU LRRC4B (11730491_at) / Fold change /veh LRRC4B (11730491_at) / RFU GIMAP4 (11747438_a_at) / Fold change /veh GIMAP4 (11747438_a_at) / RFU KRT8 (11758183_x_at) / Fold change /veh KRT8 (11758183_x_at) / RFU CNN1 (11734310_a_at) / Fold change /veh CNN1 (11734310_a_at) / RFU VPS37D (11726825_at) / Fold change /veh VPS37D (11726825_at) / RFU C10orf10 (11716522_x_at) / Fold change /veh C10orf10 (11716522_x_at) / RFU KIR2DL2 /// KIR2DL4 /// KIR2DL5A /// KIR2DL5B /// KIR2DS1 /// KIR2DS2 /// KIR2DS3 /// KIR2DS4 /// KIR3DL3 /// KIR3DL3 /// KIR3DS1 (11738374_at) / Fold change /veh KIR2DL2 /// KIR2DL4 /// KIR2DL5A /// KIR2DL5B /// KIR2DS1 /// KIR2DS2 /// KIR2DS3 /// KIR2DS4 /// KIR3DL3 /// KIR3DL3 /// KIR3DS1 (11738374_at) / RFU C1QL1 (11718748_at) / Fold change /veh C1QL1 (11718748_at) / RFU TMPRSS4 (11747572_a_at) / Fold change /veh TMPRSS4 (11747572_a_at) / RFU HAMP (11756126_x_at) / Fold change /veh HAMP (11756126_x_at) / RFU RNFT2 (11725882_a_at) / Fold change /veh RNFT2 (11725882_a_at) / RFU NR4A2 (11747474_a_at) / Fold change /veh NR4A2 (11747474_a_at) / RFU ABCC12 (11746883_a_at) / Fold change /veh ABCC12 (11746883_a_at) / RFU TMEM136 (11760407_x_at) / Fold change /veh TMEM136 (11760407_x_at) / RFU CLDN22 /// WWC2 (11732394_at) / Fold change /veh CLDN22 /// WWC2 (11732394_at) / RFU HLA-DPB1 (11760878_x_at) / Fold change /veh HLA-DPB1 (11760878_x_at) / RFU SPINT1 (11716480_a_at) / Fold change /veh SPINT1 (11716480_a_at) / RFU GAP43 (11754022_s_at) / Fold change /veh GAP43 (11754022_s_at) / RFU A4GNT (11735810_at) / Fold change /veh A4GNT (11735810_at) / RFU PRB3 (11715151_x_at) / Fold change /veh PRB3 (11715151_x_at) / RFU TUBB4B (11761932_at) / Fold change /veh TUBB4B (11761932_at) / RFU CAPN14 (11732068_a_at) / Fold change /veh CAPN14 (11732068_a_at) / RFU TMCC2 (11721928_a_at) / Fold change /veh TMCC2 (11721928_a_at) / RFU IRGQ (11745062_a_at) / Fold change /veh IRGQ (11745062_a_at) / RFU FAM174B (11720279_a_at) / Fold change /veh FAM174B (11720279_a_at) / RFU TMPRSS4 (11748680_a_at) / Fold change /veh TMPRSS4 (11748680_a_at) / RFU FAM212B (11763350_a_at) / Fold change /veh FAM212B (11763350_a_at) / RFU PLEKHG5 (11743358_a_at) / Fold change /veh PLEKHG5 (11743358_a_at) / RFU ZSCAN30 (11745921_a_at) / Fold change /veh ZSCAN30 (11745921_a_at) / RFU CMKLR1 (11741424_a_at) / Fold change /veh CMKLR1 (11741424_a_at) / RFU LOC101060620 /// MAPK8IP1 (11723275_at) / Fold change /veh LOC101060620 /// MAPK8IP1 (11723275_at) / RFU SPTSSB (11747773_x_at) / Fold change /veh SPTSSB (11747773_x_at) / RFU PRSS12 (11739890_at) / Fold change /veh PRSS12 (11739890_at) / RFU BIN1 (11741810_x_at) / Fold change /veh BIN1 (11741810_x_at) / RFU WNT11 (11732464_a_at) / Fold change /veh WNT11 (11732464_a_at) / RFU C10orf10 (11716521_a_at) / Fold change /veh C10orf10 (11716521_a_at) / RFU C5orf56 (11738089_at) / Fold change /veh C5orf56 (11738089_at) / RFU CYB561 (11721691_x_at) / Fold change /veh CYB561 (11721691_x_at) / RFU ANKRD19P (11752326_a_at) / Fold change /veh ANKRD19P (11752326_a_at) / RFU OR2T12 /// OR2T33 /// OR2T8 (11738714_s_at) / Fold change /veh OR2T12 /// OR2T33 /// OR2T8 (11738714_s_at) / RFU VCAN (11748164_a_at) / Fold change /veh VCAN (11748164_a_at) / RFU JSRP1 (11732532_at) / Fold change /veh JSRP1 (11732532_at) / RFU KRTAP10-11 (11738290_x_at) / Fold change /veh KRTAP10-11 (11738290_x_at) / RFU MYO3A (11730013_a_at) / Fold change /veh MYO3A (11730013_a_at) / RFU EBF3 (11725865_a_at) / Fold change /veh EBF3 (11725865_a_at) / RFU CAMK2N1 (11719241_x_at) / Fold change /veh CAMK2N1 (11719241_x_at) / RFU C5orf56 (11738088_a_at) / Fold change /veh C5orf56 (11738088_a_at) / RFU OLFML3 (11715873_a_at) / Fold change /veh OLFML3 (11715873_a_at) / RFU LOC100653217 /// NTM (11731650_a_at) / Fold change /veh LOC100653217 /// NTM (11731650_a_at) / RFU MAPK11 (11762145_a_at) / Fold change /veh MAPK11 (11762145_a_at) / RFU FIZ1 (11724087_x_at) / Fold change /veh FIZ1 (11724087_x_at) / RFU OASL (11726364_x_at) / Fold change /veh OASL (11726364_x_at) / RFU SOX15 (11748057_x_at) / Fold change /veh SOX15 (11748057_x_at) / RFU CD79A (11719716_a_at) / Fold change /veh CD79A (11719716_a_at) / RFU HIST1H1D (11736915_at) / Fold change /veh HIST1H1D (11736915_at) / RFU CASKIN2 (11723855_a_at) / Fold change /veh CASKIN2 (11723855_a_at) / RFU LOC730098 (11760151_x_at) / Fold change /veh LOC730098 (11760151_x_at) / RFU OR4N2 (11742367_at) / Fold change /veh OR4N2 (11742367_at) / RFU PRRT2 (11749266_a_at) / Fold change /veh PRRT2 (11749266_a_at) / RFU SNX32 (11753110_a_at) / Fold change /veh SNX32 (11753110_a_at) / RFU CDHR5 (11726645_a_at) / Fold change /veh CDHR5 (11726645_a_at) / RFU RCAN1 (11760418_a_at) / Fold change /veh RCAN1 (11760418_a_at) / RFU FAM167A (11723789_a_at) / Fold change /veh FAM167A (11723789_a_at) / RFU FAM26E (11764081_at) / Fold change /veh FAM26E (11764081_at) / RFU ISYNA1 (11749810_s_at) / Fold change /veh ISYNA1 (11749810_s_at) / RFU ACY1 (11761880_at) / Fold change /veh ACY1 (11761880_at) / RFU 11764098_at / Fold change /veh 11764098_at / RFU SAMD14 (11745864_x_at) / Fold change /veh SAMD14 (11745864_x_at) / RFU NPB (11741838_a_at) / Fold change /veh NPB (11741838_a_at) / RFU TMPRSS6 (11731388_a_at) / Fold change /veh TMPRSS6 (11731388_a_at) / RFU KRTAP10-2 (11738614_at) / Fold change /veh KRTAP10-2 (11738614_at) / RFU ARHGAP8 /// PRR5-ARHGAP8 (11727945_x_at) / Fold change /veh ARHGAP8 /// PRR5-ARHGAP8 (11727945_x_at) / RFU KRTAP5-7 /// NADSYN1 (11734609_at) / Fold change /veh KRTAP5-7 /// NADSYN1 (11734609_at) / RFU RASL12 (11751679_a_at) / Fold change /veh RASL12 (11751679_a_at) / RFU CDKN2B (11736163_a_at) / Fold change /veh CDKN2B (11736163_a_at) / RFU PRF1 (11729649_at) / Fold change /veh PRF1 (11729649_at) / RFU, ZNF638 /// ZNF638-IT1 / Fold change vs veh, ZNF638 /// ZNF638-IT1 / RFU, PANK3 / Fold change vs veh, PANK3 / RFU, SH3YL1 / Fold change vs veh, SH3YL1 / RFU, ZEB2 / Fold change vs veh, ZEB2 / RFU, NRIP1 / Fold change vs veh, NRIP1 / RFU, PTTG1IP / Fold change vs veh, PTTG1IP / RFU, CAPN2 / Fold change vs veh, CAPN2 / RFU, MED14 / Fold change vs veh, MED14 / RFU, SNORA58 / Fold change vs veh, SNORA58 / RFU, C1orf63 / Fold change vs veh, C1orf63 / RFU, LRRFIP1 / Fold change vs veh, LRRFIP1 / RFU, NDUFAF7 / Fold change vs veh, NDUFAF7 / RFU, SLC12A2 / Fold change vs veh, SLC12A2 / RFU, IBTK / Fold change vs veh, IBTK / RFU, ESF1 / Fold change vs veh, ESF1 / Fold change vs veh, TMEM50B / RFU, TAOK1 / Fold change vs veh, TAOK1 / RFU, ACBD3 / Fold change vs veh, ACBD3 / RFU, TMA16 / Fold change vs veh, TMA16 / RFU, RWDD3 / Fold change vs veh, RWDD3 / RFU, BCAT1 / Fold change vs veh, BCAT1 / RFU, EDEM3 / Fold change vs veh, EDEM3 / RFU, TMEM33 / Fold change vs veh, TMEM33 / RFU, WDR75 / Fold change vs veh, WDR75 / RFU, AHCTF1 / Fold change vs veh, AHCTF1 / RFU, TFRC / Fold change vs veh, TFRC / RFU, ZDHHC17 / Fold change vs veh, ZDHHC17 / RFU, NOM1 / Fold change vs veh, NOM1 / RFU, ARL8B / Fold change vs veh, ARL8B / RFU, ZBTB11 / Fold change vs veh, ZBTB11 / RFU, TAMM41 / Fold change vs veh, TAMM41 / RFU, KIAA1704 /// LOC100996395 / Fold change vs veh, KIAA1704 /// LOC100996395 / RFU, ING1 / Fold change vs veh, ING1 / RFU, TRMT61B / Fold change vs veh, TRMT61B / RFU, FUBP3 / Fold change vs veh, FUBP3 / RFU, TP53 / Fold change vs veh, TP53 / RFU, TNKS2 / Fold change vs veh, TNKS2 / RFU, ZFP14 / Fold change vs veh, ZFP14 / RFU, ACTR2 / Fold change vs veh, ACTR2 / RFU, PPP3R1 / Fold change vs veh, PPP3R1 / RFU, PIK3R1 / Fold change vs veh, PIK3R1 / RFU, HNRNPA1 / Fold change vs veh, HNRNPA1 / RFU, RNF170 / Fold change vs veh, RNF170 / RFU, ZNF28 / Fold change vs veh, ZNF28 / RFU, RNGTT / Fold change vs veh, RNGTT / RFU, OGT / Fold change vs veh, OGT / RFU, BRD1 / Fold change vs veh, BRD1 / RFU, MARS / Fold change vs veh, MARS / RFU, ZNF655 / Fold change vs veh, ZNF655 / RFU, FAHD1 / Fold change vs veh, FAHD1 / RFU, BDP1 / Fold change vs veh, BDP1 / RFU, LRRCC1 / Fold change vs veh, LRRCC1 / RFU, ARID1A / Fold change vs veh, ARID1A / RFU, ZNF146 / Fold change vs veh, ZNF146 / RFU, ZNF330 / Fold change vs veh, ZNF330 / RFU, GPN3 / Fold change vs veh, GPN3 / RFU, C9orf123 / Fold change vs veh, C9orf123 / RFU, N4BP2L2 / Fold change vs veh, N4BP2L2 / RFU, ARFIP1 / Fold change vs veh, ARFIP1 / RFU, FAM179B / Fold change vs veh, FAM179B / RFU, BCL10 / Fold change vs veh, BCL10 / RFU, UHRF1BP1L / Fold change vs veh, UHRF1BP1L / RFU, BET1 / Fold change vs veh, BET1 / RFU, CNOT2 / Fold change vs veh, CNOT2 / RFU, ZNF268 / Fold change vs veh, ZNF268 / Fold change vs veh, ZNF507 / RFU, DGCR2 / Fold change vs veh, DGCR2 / RFU, WDSUB1 / Fold change vs veh, WDSUB1 / Fold change vs veh, HSP90B1 /// MIR3652 / RFU, ADSS / Fold change vs veh, ADSS / RFU, GK / Fold change vs veh, GK / RFU, ZNF148 / Fold change vs veh, ZNF148 / RFU, TAF9 / Fold change vs veh, TAF9 / RFU, SLC1A5 / Fold change vs veh, SLC1A5 / RFU, SLMO2 / Fold change vs veh, SLMO2 / RFU, ABCC4 / Fold change vs veh, ABCC4 / RFU, LOC101060439 /// RAP1B / Fold change vs veh, LOC101060439 /// RAP1B / RFU, RFX7 / Fold change vs veh, RFX7 / RFU, GTPBP10 / Fold change vs veh, GTPBP10 / RFU, CNEP1R1 / Fold change vs veh, CNEP1R1 / RFU, BIVM-ERCC5 /// ERCC5 / Fold change vs veh, BIVM-ERCC5 /// ERCC5 / RFU, ILF3 / Fold change vs veh, ILF3 / RFU 11762660_at / Fold change /veh 11762660_at / RFU VCAN (11757783_s_at) / Fold change /veh VCAN (11757783_s_at) / RFU DDX43 (11728927_at) / Fold change /veh DDX43 (11728927_at) / RFU KRT8 (11758188_x_at) / Fold change /veh KRT8 (11758188_x_at) / RFU NKD1 (11759106_at) / Fold change /veh NKD1 (11759106_at) / RFU SRD5A1 (11742802_a_at) / Fold change /veh SRD5A1 (11742802_a_at) / RFU TPSAB1 /// TPSB2 (11721975_s_at) / Fold change /veh TPSAB1 /// TPSB2 (11721975_s_at) / RFU GSTM3 (11746129_a_at) / Fold change /veh GSTM3 (11746129_a_at) / RFU IL23R (11737362_x_at) / Fold change /veh IL23R (11737362_x_at) / RFU TMEM51 (11727254_a_at) / Fold change /veh TMEM51 (11727254_a_at) / RFU PIWIL2 (11732686_x_at) / Fold change /veh PIWIL2 (11732686_x_at) / RFU ORM1 (11744905_x_at) / Fold change /veh ORM1 (11744905_x_at) / RFU CCDC152 (11743942_at) / Fold change /veh CCDC152 (11743942_at) / RFU ECM1 (11717891_a_at) / Fold change /veh ECM1 (11717891_a_at) / RFU IL23R (11748794_a_at) / Fold change /veh IL23R (11748794_a_at) / RFU TNFAIP8L3 (11732012_x_at) / Fold change /veh TNFAIP8L3 (11732012_x_at) / RFU MBOAT4 (11741988_at) / Fold change /veh MBOAT4 (11741988_at) / RFU 11764193_at / Fold change /veh 11764193_at / RFU TMEM53 (11763286_at) / Fold change /veh TMEM53 (11763286_at) / RFU MAGEB2 (11727129_at) / Fold change /veh MAGEB2 (11727129_at) / RFU TMEM200A (11744735_a_at) / Fold change /veh TMEM200A (11744735_a_at) / RFU CCDC152 (11751479_a_at) / Fold change /veh CCDC152 (11751479_a_at) / RFU FAM211A (11726209_a_at) / Fold change /veh FAM211A (11726209_a_at) / RFU RGS16 (11746705_a_at) / Fold change /veh RGS16 (11746705_a_at) / RFU VCAN (11755009_s_at) / Fold change /veh VCAN (11755009_s_at) / RFU RHOB (11743442_s_at) / Fold change /veh RHOB (11743442_s_at) / RFU RGS16 (11720943_a_at) / Fold change /veh RGS16 (11720943_a_at) / RFU RGS16 (11720944_at) / Fold change /veh RGS16 (11720944_at) / RFU, VPS4B / Fold change vs veh, VPS4B / RFU, CREB1 / Fold change vs veh, CREB1 / RFU, DNAJC13 / Fold change vs veh, DNAJC13 / RFU, GNAQ / Fold change vs veh, GNAQ / RFU, CDK5R1 / Fold change vs veh, CDK5R1 / RFU, ZRANB3 / Fold change vs veh, ZRANB3 / RFU, CUL4A / Fold change vs veh, CUL4A / RFU, CCNY / Fold change vs veh, CCNY / RFU, UFL1 / Fold change vs veh, UFL1 / RFU, COG3 / Fold change vs veh, COG3 / RFU, DIAPH2 / Fold change vs veh, DIAPH2 / RFU, SKA2 / Fold change vs veh, SKA2 / RFU, AFF3 / Fold change vs veh, AFF3 / RFU, LMF1 / Fold change vs veh, LMF1 / RFU, IPO11 / Fold change vs veh, IPO11 / RFU, DFFB / Fold change vs veh, DFFB / RFU, FOXP1 / Fold change vs veh, FOXP1 / RFU, CARD8 / Fold change vs veh, CARD8 / RFU, STRN3 / Fold change vs veh, STRN3 / RFU, ADK / Fold change vs veh, ADK / RFU, RASSF2 / Fold change vs veh, RASSF2 / RFU, WIPF1 / Fold change vs veh, WIPF1 / RFU, LARP1B / Fold change vs veh, LARP1B / RFU, RASA1 / Fold change vs veh, RASA1 / RFU, RB1 / Fold change vs veh, RB1 / RFU, PPFIA1 / Fold change vs veh, PPFIA1 / RFU, MAT2A / Fold change vs veh, MAT2A / RFU, CCT5 / Fold change vs veh, CCT5 / RFU, WDR92 / Fold change vs veh, WDR92 / RFU, CUX1 / Fold change vs veh, CUX1 / RFU, TTC7A / Fold change vs veh, TTC7A / RFU, TMEM135 / Fold change vs veh, TMEM135 / RFU, DEPTOR / Fold change vs veh, DEPTOR / RFU, CPM / Fold change vs veh, CPM / RFU, DNAJB6 / Fold change vs veh, DNAJB6 / RFU, CACNA2D3 / Fold change vs veh, CACNA2D3 / RFU, DTX4 / Fold change vs veh, DTX4 / RFU, TFCP2 / Fold change vs veh, TFCP2 / RFU, GMCL1 /// GMCL1P1 / Fold change vs veh, GMCL1 /// GMCL1P1 / RFU, AEBP2 / Fold change vs veh, AEBP2 / RFU, SNHG1 /// SNORD22 /// SNORD25 /// SNORD26 /// SNORD27 /// SNORD28 /// SNORD29 /// SNORD31 / Fold change vs veh, SNHG1 /// SNORD22 /// SNORD25 /// SNORD26 /// SNORD27 /// SNORD28 /// SNORD29 /// SNORD31 / Fold change (Aza/veh), C12orf56 (ProbeSet 11735607_a_at) / Fold change (ACY-1035/veh), C12orf56 (ProbeSet 11735607_a_at) / Fold change (Aza/veh), FGFR1OP (ProbeSet 11751329_s_at) / Fold change (ACY-1035/veh), FGFR1OP (ProbeSet 11751329_s_at) / Fold change (Aza/veh), VPS36 (ProbeSet 11739960_a_at) / Fold change (ACY-1035/veh), VPS36 (ProbeSet 11739960_a_at) / RFU SYPL1 (11715823_x_at) / Fold change /veh SYPL1 (11715823_x_at) / RFU IGFBP7 (11715501_s_at) / Fold change /veh IGFBP7 (11715501_s_at) / RFU REEP3 (11722064_at) / Fold change /veh REEP3 (11722064_at) / RFU IGLL1 (11728026_x_at) / Fold change /veh IGLL1 (11728026_x_at): dose or concentration left out as unconfirmed
Conditions: MV-4-11 cells, 48 hours

## Nc1ccc(-c2cccs2)cc1NC(=O)c1ccc2c(c1)cc(C1CC1)n2CCN1CCOCC1 [ACY-1035]
  RFU GSTM3 (11746129_a_at): 10.76 RFU
